Measurements: PMC8556396, “Statin-mediated disruption of Rho GTPase prenylation and activity inhibits respiratory syncytial virus infection” (Communications Biology, 2021)
“And” between values parts separate entries of the source, which are not always exact repeats. Equal entries are not always repeated.

Key:
[1] = system: RSV A2; assay: Immunofluorescence staining and microscopy of RSV F and N
Experimental: HEp-2 cells were seeded to No. 1 glass coverslips (1014355117NR1, Thermo Fisher Scientific) for high-resolution confocal microscopy, or black, flat, microclear-bottom 96-well plates (655096, Greiner Bio-One) for high-throughput quantification of RSV F and N immunofluorescence. Cells were infected with RSV A2 (MOI 0.5). At 48 h p.i., cells were fixed in 4% paraformaldehyde for 30 min and permeabilized with 0.3% Triton X-100 for 10 min at room temperature. F and N proteins were probed using mouse anti-RSV F (RSV3216) and mouse anti-RSV N (RSV3132) mAbs (Bio-Rad Antibodies) diluted 1:500 in PBS + 0.1% Tween-20 (PBST), or mouse anti-RSV F mAb Alexa Fluor 488 conjugate (Millipore Sigma, 133/1H) diluted 1:200 in PBST over a 1-h incubation at room temperature. This was followed by detection with secondary anti-mouse Fab fragments conjugated to Alexa Fluor 488 (4408) or 647 (4410) (Cell Signaling Technology) diluted 1:1000 in PBST over a 1-h incubation at room temperature. Fluorescent images were acquired using either the Cellomics ArrayScan VTI HCS Reader at ×10 magnification (for quantification) or Olympus IX81 Spinning Disk Confocal microscope at ×60 magnification with oil immersion (for high-resolution images). F and N immunofluorescence was quantified in CellProfiler and normalized to total nuclear count.

[2] = system: RSV-GFP; assay: RSV-GFP infection of HEp-2 cells, automated imaging, dose-response; format: cell-based, Respiratory syncytial virus; conditions: human respiratory syncytial virus; for EC50: HEp-2, 2 h; for inhibition at 0.75 µM: read-out: RSV-GFP inhibition (%), log Conc (uM) -0.12494; for inhibition at 0.5 µM: read-out: RSV-GFP inhibition (%), log Conc (uM) -0.30103
Experimental: HEp-2 cells were seeded to black, flat, microclear-bottom 96-well plates (655096, Greiner Bio-One) at a density of 5000 cells per well and incubated at 37 °C/5% CO2 overnight. The following morning, cells were washed twice with serum-free EMEM and treated with RSV-GFP (MOI 0.5) in a minimal volume of serum-free media for 90 min under frequent agitation. Unbound virus was then removed and replaced with fresh serum-containing EMEM. All drug additions were performed 2 h post-viral exposure, unless otherwise stated. Nuclei were stained with Hoechst 33342 (H3570, Thermo Fisher Scientific) (at a final concentration of 1 µg/mL) 48 h p.i. and imaging was performed using the Cellomics ArrayScan VTI HCS Reader at ×10 magnification (SPARC BioCentre, The Hospital for Sick Children, Toronto, ON).
Automated quantification of infection rates from fluorescent images were performed in CellProfiler (v2.2.0)[86]. Major steps in the image analysis pipeline included: (1) background subtraction and smoothing, (2) segmentation of nuclei, (3) segmentation of GFP-fluorescent area, (4) object masking, and (5) measurement of nuclear number, size, and intensity. Infection rate was quantified from the ratio of nuclei within GFP-fluorescent area to the total number of nuclei (Fig. 1b). This method of analysis accounts for in vitro syncytium formation induced by RSV, whereby a single infected cell may arise from the fusion of multiple cells. Mean nuclear fluorescent intensity and size was quantified as a measure of cell viability. […]

[3] = system: RSV-GFP; assay: microbe, parasite or virus in culture; format: cell-based, Respiratory syncytial virus; conditions: human respiratory syncytial virus, HEp-2, read-out: RSV-GFP inhibition (%)
Experimental: The following morning, cells were washed twice with serum-free EMEM and treated with RSV-GFP (MOI 0.5) in a minimal volume of serum-free media for 90 min under frequent agitation. Unbound virus was then removed and replaced with fresh serum-containing EMEM. All drug additions were performed 2 h post-viral exposure, unless otherwise stated.
Automated quantification of infection rates from fluorescent images were performed in CellProfiler (v2.2.0)[86]. Major steps in the image analysis pipeline included: (1) background subtraction and smoothing, (2) segmentation of nuclei, (3) segmentation of GFP-fluorescent area, (4) object masking, and (5) measurement of nuclear number, size, and intensity. Infection rate was quantified from the ratio of nuclei within GFP-fluorescent area to the total number of nuclei (Fig. 1b). This method of analysis accounts for in vitro syncytium formation induced by RSV, whereby a single infected cell may arise from the fusion of multiple cells. Mean nuclear fluorescent intensity and size was quantified as a measure of cell viability.
The MicroSource […] Collection (Discovery Systems Inc.) consisting of 2400 compounds was screened using the previously outlined RSV-GFP infection assay protocol. Robot-assisted addition of drugs was performed within 1 h of RSV-GFP infection and infection rates were assayed 48 h p.i. Drugs were provided as 10 mM stocks in DMSO and serial diluted to a final concentration of 10 µM, resulting in a final DMSO concentration of 0.1% v/v. […] Hits were selected based on the criteria that: (a) the tested drug caused a >50% reduction in infection rate and (b) was not overtly cytotoxic (<10% change in mean nuclear intensity relative to DMSO control). Z-factors were calculated on a per-plate basis to monitor assay quality.

[4] = system: RSV A2; assay: Quantification of infectious virus production (plaque assay); format: cell-based, Respiratory syncytial virus; conditions: Fig 7A; Rhosin 50 uM, EHT 1864 20 uM, ML 141 10 uM; replicate values
Experimental: HEp-2 cells were seeded to six-well plates at a density of 1 × 10^6 cells per well and incubated overnight at 37 °C/5% CO2. The following morning, cells were infected with RSV A2 (MOI 1.0) and treated with drugs 2 h post-viral exposure. The supernatant, containing progeny virions, was collected 48 h p.i., snap frozen, and stored at −80 °C. Quantification of infectious virus particles was performed by a traditional plaque assay. HEp-2 cells were seeded to six-well plates at a density of 1.5 × 10^6 cells per well and grown to 90% confluency. Cells were incubated with serial dilutions of the collected supernatants for 90 min at 37 °C/5% CO2 under frequent agitation. The inoculant was then removed and replaced with 4 mL of 1:1 4% FBS DMEM-F12/1% agarose. Plates were incubated for 5 days at 37 °C/5% CO2. Cells were then fixed with 10% formalin for 30 min at room temperature. After fixation and removal of agarose from each well, the cells were stained with 0.05% neutral red and plaques were quantified under a dissecting microscope.

[5] = GGPP 10.0 µM in the presence of atorvastatin 3.5 µM
[6] = HEp-2, RSV-GFP MOI 0.5, treated 2 h post-viral exposure

CC1(O)CCOC(=O)C1 (racemic) [Mevalonolactone, DL-mevalonolactone]
effect of mevalonolactone co-treatment in statin-treated cells ([1]; mevalonolactone 1 mM with atorvastatin 3.5 µM or simvastatin 1.5 µM): restore viral protein intensity to DMSO (0.1% v/v) baseline

CC(C)=CCC/C(C)=C/CC/C(C)=C/CC/C(C)=C/COP(=O)(O)OP(=O)(O)O.N.N.N [GGPP, geranylgeranyl pyrophosphate ammonium salt]
restoration of F protein intensity [1, 5]: 33.4 ± 3.5% | restoration of N protein intensity [1, 5]: 50.4 ± 1.6%

O=C(Nc1ccc([N+](=O)[O-])cc1Cl)c1cc(Cl)ccc1O [Niclosamide]
EC50 [2, 6]: 443 nM | inhibition at 0.75 µM ([2]; HEp-2, 48 h, replicate values): 73.9% | inhibition at 0.55 µM ([2]; HEp-2, 48 h, read-out: RSV-GFP inhibition (%), log Conc (uM) -0.25964, replicate values): 59.2% | inhibition at 0.5 µM ([2]; HEp-2, 48 h, replicate values): 63.8% | inhibition at 0.45 µM ([2]; HEp-2, 48 h, read-out: RSV-GFP inhibition (%), log Conc (uM) -0.34679, replicate values): 30.5% | inhibition at 0.4 µM ([2]; HEp-2, 48 h, read-out: RSV-GFP inhibition (%), log Conc (uM) -0.39794, replicate values): 21.3% | inhibition at 0.35 µM ([2]; HEp-2, 48 h, read-out: RSV-GFP inhibition (%), log Conc (uM) -0.45593, replicate values): 18.9% | inhibition at 0.3 µM ([2]; HEp-2, 48 h, read-out: RSV-GFP inhibition (%), log Conc (uM) -0.52288, replicate values): 4.57% | inhibition at 0.2 µM ([2]; HEp-2, 48 h, read-out: RSV-GFP inhibition (%), log Conc (uM) -0.69897, replicate values): 1.85% | inhibition at 10 µM [3]: 93.9%

C#C[C@]1(O)CC[C@H]2[C@@H]3CCC4=CC(=O)CC[C@@H]4[C@H]3CC[C@@]21C [Norethindrone, 19-Norethindrone]
EC50 [2, 6]: 705 nM | inhibition at 0.8 µM ([2]; HEp-2, 48 h, read-out: RSV-GFP inhibition (%), log Conc (uM) -0.09691, replicate values): 61.9% | inhibition at 0.6 µM ([2]; HEp-2, 48 h, read-out: RSV-GFP inhibition (%), log Conc (uM) -0.22185, replicate values): 41.8% | inhibition at 0.5 µM ([2]; HEp-2, 48 h, replicate values): 19.2% | inhibition at 10 µM [3]: 75.2%

N[C@H](Cc1c[nH]c2ccccc12)C(=O)N/N=C/c1ccc2nccnc2c1 [Rhosin]
Virus titre (log10 PFU/mL) [4]: 5.176 log10 PFU/mL and 5.204 log10 PFU/mL and 5.079 log10 PFU/mL and 5.322 log10 PFU/mL

CC(C)[C@@H]1NC(=O)[C@H](C)OC(=O)[C@@H](C(C)C)NC(=O)[C@@H](C(C)C)OC(=O)[C@H](C(C)C)NC(=O)[C@H](C)OC(=O)[C@@H](C(C)C)NC(=O)[C@@H](C(C)C)OC(=O)[C@H](C(C)C)NC(=O)[C@H](C)OC(=O)[C@@H](C(C)C)NC(=O)[C@@H](C(C)C)OC1=O [Valinomycin]
EC50 [2]: 39 nM | inhibition at 0.75 µM ([2]; HEp-2, 48 h, replicate values): 74.6% | inhibition at 0.5 µM ([2]; HEp-2, 48 h, replicate values): 71.6% | inhibition at 0.25 µM ([2]; HEp-2, 48 h, read-out: RSV-GFP inhibition (%), log Conc (uM) -0.60206, replicate values): 78.6% | inhibition at 0.1 µM ([2]; HEp-2, 48 h, read-out: RSV-GFP inhibition (%), log Conc (uM) -1, replicate values): 76.7% | inhibition at 0.09 µM ([2]; HEp-2, 48 h, read-out: RSV-GFP inhibition (%), log Conc (uM) -1.04576, replicate values): 77.4% | inhibition at 0.06 µM ([2]; HEp-2, 48 h, read-out: RSV-GFP inhibition (%), log Conc (uM) -1.22185, replicate values): 71.2% | inhibition at 0.05 µM ([2]; HEp-2, 48 h, read-out: RSV-GFP inhibition (%), log Conc (uM) -1.30103, replicate values): 77.4% | inhibition at 10 µM [3]: 88%

ML 141
Virus titre (log10 PFU/mL) [4]: 5 log10 PFU/mL and 5.079 log10 PFU/mL and 5.176 log10 PFU/mL and 5.204 log10 PFU/mL
